Data: patent US6372212B1, “Chitinase materials and methods” (ICOS Corporation, priority 1996, dated 2002)
In brackets after ≈: the same amount, converted by molar mass. Where two headings read alike, the source gives them in different places.

Assays:
[1] = Chitotriosidase (chitinase) catalytic activity, fluorogenic substrate; type: biochemical
Method: Chitotriosidase (chitinase) activity was measured using the fluorogenic substrate 4-methylumbelliferyl-β-D-N,N′,N″-triacetylchitotriose (4 MU-chitotrioside, Sigma Chemical, St. Louis, Mo.) in McIlvain buffer (Hollak et al., supra). Ten μl samples of the recombinant product were combined with 10 itl bovine serum albumin (10 mg/ml), 15 μl fluorogenic substrate (2.71 mM), and 65 μl buffer (0.1M citric acid, 0.2M sodium phosphate, pH 5.2) in a total volume of 100 μl. Reactions were incubated at 37° C. for 15 minutes, then the reaction was stopped with the addition of 2 ml of 0.3M glycine/NaOH buffer (pH 10.6). The fluorescent cleavage product, 4-methylumbelliferone, was monitored with a fluorimeter (SLM-AMINCO Instruments, Inc., Rochester, N.Y.) at 450 nm. […] The known quantity of 4-MU was then correlated to the fluorescence signal from the fluorimeter and linear regression was used to determine a standard curve. The signal produced with diluted purified recombinant chitinase in the assay was then used to interpolate the nm quantity of substrate cleaved by the enzyme during the reaction time. This number was then divided by the concentration of protein to obtain the nm/min per mg protein (determined by A280 and calculated molar extinction coefficient).

[2] = system: Candida albicans (ATCC no. 90028); assay: Agar diffusion assay; type: cell-based; parameters: key: +: Normal growth, no inhibition of growth observed; −: Inhibited fungal growth, zone of inhibition is observed
Method: (§1) In additional experiments, the anti-fungal activity of recombinant human chitinase (produced in COS cells as described in Example 5A) was evaluated in an agar diffusion assay, in a broth assay according to National Committee on Clinical Laboratory Standards, and in a cell wall inhibition assay according to Selitrennikoff, Antimicrob. Agents Chemother., 23:757-765 (1983).
In the agar diffusion assay, approximately 1×10^6 cells/ml of Candida albicans (ATCC no. 90028) inoculated into 1.5% agar (RPMI 1640 media buffered with […] (MOPS), pH 7.0. A disk containing 50 μg of the sample (A: recombinant human chitinase, B: buffer control, C: control protein, D: a bacterial lysate with chitinase activity, or a known anti-fungal agent) was placed on the agar, and the zone of growth inhibition was measured. Results are shown in Table 1 below.

[3] = system: Aspergillus fumigatus; assay: Agar diffusion assay; type: cell-based; parameters: key: +: Normal growth, no inhibition of growth observed; −: Inhibited fungal growth, zone of inhibition is observed
[4] = system: Aspergillus fumigatus (ATCC no. 16424); assay: Broth assay; type: cell-based
Method: as §1
(§2) In the broth assay, 50 μg/ml of the sample (A: recombinant human chitinase, B: buffer control, C: control protein, D: a bacterial lysate with chitinase activity, or a known anti-fungal agent) was added with a certain concentration of the test fungal organism to RPMI 1640 media buffered with MOPS, pH 7.0. The samples were incubated at 35° C., with shaking at 120 rpm, for 48 hours, and then growth was evaluated by measuring the turbidity of the suspension. The approximate concentrations of the test fungi were as follows: 2.5×10^4 cells/ml of Candida albicans (ATCC no. 90028); 5×10^4 cells/ml of Candida albicans-polyene resistant (ATCC no. 38247); 1 x 10^4 cells/ml of Aspergillus fumigatus (ATCC no. 16424); 1×10^4 cells/ml of Neurospora crassa (ATCC no. 18889); and 1×10^4 cells/ml of Saccharomyces cerevisiae (ATCC no. 26108).

[5] = system: Candida albicans (ATCC no. 90028); assay: Broth assay; type: cell-based; settings: for IC50: lowest concentration inhibiting growth by at least 50%
Method: as §1, §2

[6] = system: Candida albicans-polyene resistant (ATCC no. 38247); assay: Broth assay; type: cell-based; settings: for IC50: Candida, ATCC38247, lowest concentration inhibiting growth by at least 50%
Method: as §1, §2

[7] = system: Neurospora crassa (ATCC no. 18889); assay: Broth assay; type: cell-based; parameters: key to Neurospora crassa Growth: 0: No fungal growth; 1: growth is 25% of control; 2: growth is 50% of control; 3: growth is 75% of control; 4: growth equivalent to control; 5: growth is greater than control; settings: for IC50: Neurospora crassa, ATCC18889, lowest concentration inhibiting growth by at least 50%
Method: as §1, §2

[8] = system: os-1 cell, mutant strain of Neurospora crassa (protoplasts); assay: os-1 whole cell assay (fungal cell wall biosynthesis inhibition); type: cell-based; parameters: key to Cell Wall Regenertion: +: Normal cell-wall regeneration; −: Inhibited cell-wall regeneration; key to Cell Growth: +: Normal growth, no inhibition of growth observed; −: Inhibited fungal growth, zone of inhibition is observed; settings: 25° C., 72 hours
[9] = system: Saccharomyces cerevisiae (ATCC no. 26108); assay: Broth assay; type: cell-based; parameters: key to IC50: 0: No fungal growth; 1: growth is 25% of control; 2: growth is 50% of control; 3: growth is 75% of control; 4: growth equivalent to control; 5: growth is greater than control; settings: for IC50: lowest concentration inhibiting growth by at least 50%
Method: as §1, §2

[10] = system: Aspergillus fumigatis; assay: Preliminary in vitro fungal growth inhibition (turbidity of cultures); type: cell-based; settings: 0, 2.8, 11.25, or 45 μg/ml; 24 hours; 10,000-50,000 CFU per ml
Method: (§3) In a preliminary experiment, recombinant human chitinase was tested for inhibition of fungal growth in vitro. The two fungi Candida albicans and Aspergillus fumigatis are serious pathogens for immunocompromised patients. Both Candida and Aspergillus were grown in RPMI growth media at 37° C. to approximately 10,000-50,000 colony forming units (CFU) per ml. Recombinant human chitinase (produced in COS cells as described in Example 5A) was added to cultures at 0, 2.8, 11.25, or 45 μg/ml. After 24 hours, fungal growth was assessed by turbidity of cultures. […] The concentration of fungi tested, however, is much higher than the fungal burden seen during fungal infection in vivo. Different results may be obtained under different conditions, e.g., with a lower fungal burden, or when human chitinase is tested in combination with other anti-fungal agents.

[11] = system: Candida albicans; assay: as above; type: cell-based; settings: 0, 2.8, 11.25, or 45 μg/ml; 24 hours; 10,000-50,000 CFU per ml
Method: as §3

[12] = system: os-1 cell, mutant strain of Neurospora crassa (protoplasts); assay: os-1 whole cell assay (fungal cell wall biosynthesis inhibition); type: cell-based; parameters: key to Cell Wall Regenertion: +: Normal cell-wall regeneration; −: Inhibited cell-wall regeneration; key to Cell Growth: +: Normal growth, no inhibition of growth observed; −: Inhibited fungal growth, zone of inhibition is observed
Method: as §1
The os-1 whole cell assay, which identifies inhibitors of fungal cell wall biosynthesis, was conducted essentially according to Selitrennikoff, supra, using an inoculum of 1.5×10^5 protoplasts/ml embedded in agar (Vogel's Medium N, 7.5% sorbitol, 1.5 % sucrose, 10 μg/ml nicotiniamide and 1 % agar) incubated at 25° C. for 72 hours. The cultures were monitored for changes in growth and morphology after disks containing 50 μg of the sample (A: recombinant human chitinase, B: buffer control, C: control protein, D: a bacterial lysate with chitinase activity, or a known anti-fungal agent) were placed on the agar medium. The os-1 cell is a mutant strain of Neurospora crassa that grows as protoplasts without cell walls when incubated under certain conditions at 37° C., but regenerates a cell wall under the appropriate conditions when the temperature is shifted to about 22° C.

[13] = parameters: species or system Female Balb/c mice; settings: mouse, in vivo, iv
Method: The pharmacokinetics of recombinant human chitinase in mice were determined as follows. Female Balb/c mice, 6-8 weeks old, were injected intravenously in the tail vein with 0.5 mg/kg, 5.0 mg/kg and 50 mg/kg recombinant human chitinase. For each dose, mice were terminally bled at 0.01, 0.25, 1, 8 and 24 hours after injection (2 animals were used per time point per dosage). Serum samples were then assayed for chitinase activity and concentration.

[14] = system: test fungal organism; assay: Broth assay, overall conclusion; type: cell-based
Method: as §2

[15] = lowest concentration inhibiting growth by at least 90%
[16] = 50 μg/ml, 35° C., 48 hours, turbidity score

recombinant product: C-terminal truncated human chitinase analog (serine at position 370) expressed in E. coli from the Ara-chitinase plasmid at 25° C.
chitinase catalytic activity ([1]; E. coli transformants grown at 25° C., in words): exhibited chitinase catalytic activity

C[C@@H]1[C@H](O)[C@@H](C)/C=C/C=C/C=C/C=C/C=C/C=C/C=C/[C@H](O[C@@H]2O[C@H](C)[C@@H](O)[C@H](N)[C@@H]2O)C[C@@H]2O[C@](O)(C[C@@H](O)C[C@@H](O)[C@H](O)CC[C@@H](O)C[C@@H](O)CC(=O)O[C@H]1C)C[C@H](O)[C@H]2C(=O)O [amphotericin B]
Candida albicans Growth ([2]; 400 ng/disk): − | Aspergillus fumigatus Growth ([3]; 400 ng/disk): − | IC90 [4, 15]: 2 μg/ml (growth is 50% of control) | IC90 [5, 15]: 0.5 µg/mL (≈ 0.541 µM) | IC90 [6, 15]: >16 µg/mL | IC90 [7, 15]: 0.5 µg/mL | Cell Growth ([8]; 400 ng/disk): − | Cell Wall Regenertion ([8]; 400 ng/disk): + | Morphology ([8]; 400 ng/disk): cell debris | Radial measurement of inhibited growth from center of disk ([8]; 400 ng/disk): 10 mm^e

C[C@@H]([C@H](N)C(=O)N[C@H](C(=O)O)[C@H]1O[C@@H](n2ccc(=O)[nH]c2=O)[C@H](O)[C@@H]1O)[C@H](O)c1ccc(O)cn1 [nikkomycin Z]
Cell Growth ([8]; 1 μg/disk): + | Cell Wall Regenertion ([8]; 1 μg/disk): − | Morphology ([8]; 1 μg/disk): protoplasts | Radial measurements of inhibited cell-wall regeneration from center of disk ([8]; 1 μg/disk): 30 mm^d

Nc1nc(=O)[nH]cc1F [5-fluorocytosine]
IC50 ([4]; Aspergillus fumigatus, ATCC16424, lowest concentration inhibiting growth by at least 50%): 16 µg/mL (≈ 124 µM) | IC50 [5]: 2 μg/ml (growth is 50% of control) | IC50 [6]: 0.06 µg/mL (≈ 0.465 µM) | IC50 [7]: > 64 µg/mL | IC50 ([9]; Saccharomyces cerevisiae, ATCC26108, read-out: IC50): 0.125 µg/mL

OC(Cn1cncn1)(Cn1cncn1)c1ccc(F)cc1F [fluconazole]
IC50 ([5]; Candida albicans, ATCC90028, read-out: IC50): 0.5 µg/mL (≈ 1.63 µM) | IC50 [6]: 16 µg/mL (≈ 52.2 µM) | IC50 [7]: 8 µg/mL | IC50 [9]: 4 µg/mL

A: rH-Chitinase: Recombinant human chitinase (full length, pRc/CMV-MO-13B, SEQ ID NO: 4) produced in COS cells according to Example 5A
chitotriosidase activity ([1]; purified protein produced in COS cells, 37° C., 15 minutes, pH 5.2): 90 nm/min per mg protein | fungal growth assessed by turbidity of cultures [10]: comparable rates, independent of chitinase concentration | fungal growth assessed by turbidity of cultures [11]: comparable rates, independent of chitinase concentration | Candida albicans Growth ([2]; 50 μg/disk): + | Aspergillus fumigatus Growth ([3]; 50 μg/disk): + | Aspergillus fumigatus Growth [4, 16]: 3 (growth is 75% of control) | Candida albicans Growth [5, 16]: 2 (growth is 50% of control) | C. albicans-polyene resistant Growth [6, 16]: 2 (growth is 50% of control) | Neurospora crassa Growth [7, 16]: 4 | Saccharomyes cerevisiae Growth [9, 16]: 2 (growth is 50% of control) | conclusion in the os-1 whole cell assay (in words) [12]: cell wall specific inhibitor | Cell Growth ([12]; 50 μg/disk, 25° C., 72 hours): + | Cell Wall Regenertion ([12]; 50 μg/disk, 25° C., 72 hours): − | Morphology ([12]; 50 μg/disk, 25° C., 72 hours): protoplasts | Radial measurements of inhibited cell-wall regeneration from center of disk ([12]; 50 μg/disk, 25° C., 72 hours): 10 mm^d | MRT (total body mean residence time) ([13]; 0.5 mg/kg): 45 min | MRT (total body mean residence time) ([13]; 5 mg/kg): 45.6 min | MRT (total body mean residence time) ([13]; 50 mg/kg): 159 min | conclusion in the broth assay (in words) [14]: mildly anti-fungal
